Laboratory results published in US20090088411A1, “No-donating corticosteroid with improved pharmacokinetic, anti-inflammatory and vasodilatory properties” (Topigen Pharmaceuticals Inc., priority 2007, published 2009).
Marks after values point to notes of the source that are not given here.

Experiments:
[1] = Plasma pharmacokinetic profile after inhalation; assay type: in vivo, humans
Procedure: (§1) Those subjects who completed the 14-day run-in period were assigned to receive either an inhaled version of a compound of the present invention (in this case, budesonide 21-(4′-nitrooxymethyl)benzoate, designated hereafter as “TPI-1020”) or budesonide over a 21-day period. The doses administered were based on equimolar amounts of budesonide and were as follows: budesonide 400 μg bid for 14 days then 800 μg bid for 7 days; TPI-1020: 600 μg bid for 14 days then 1200 μg bid for 7 days. Study treatments were delivered in lactose-based blends using the capsule-based Aeroliser dry powder inhaler. Budesonide capsules (Miflonide®, Novartis Pharmaceuticals) delivered 383 μg as compared to 423 μg of budesonide for TPI-1020 (equivalent to 9.5% more budesonide delivered to the body in the TPI-1020 group). However, the fine particle dose of budesonide was 104 μg for the budesonide capsules and only 78 μg for the TPI-1020 capsules (equivalent to 25% less budesonide delivered to the lung in the TPI-1020 group). No other asthma medication except rescue salbutamol was permitted during the study.
TPI-1020 was not detected in the plasma of treated subjects at all the time points that were assessed over an 8 hour period on days 1 and 14 and on day 22, approximately 12 hours after the last dose. The budesonide plasma phamacokinetic analysis was different in the TPI-1020 group when compared to the budesonide group (FIG. 6). The Cmax, Tmax, and AUC were, respectively in the TPI-1020 vs. the budesonide treated group. For the data presented in FIG. 6, plasma budesonide was measured over an 8 hour period in budesonide (400 mcg, n=10) and TPI-1020 (600 mcg, n=8) treated patients after the first dose (day 1, dotted line) and day 14 (solid line).

[2] = system: HPA (hypothalamic-pituitary-adrenal) axis; conditions: in vivo
From the text: (§4) This undesirable HPA axis suppression is typically measured by a reduction in urinary cortisol excretion.
(§5) Safety parameters consisted of adverse events and serious adverse events, vital signs, asthma symptoms, laboratory determinations of CBC, urinalysis, regular blood biochemistry, plasma C-reactive protein (CRP), plasma and urinary free cortisol levels, spirometry and electrocardiograms (ECGs).

[3] = parameters: species or system humans; conditions: human, in vivo
From the text: (§2) A clinical study was undertaken in humans to test certain aspects of a preferred NO-donating budesonide derivative, TPI-1020, as compared to the corticosteroid, budesonide which was not modified with a NO-donating moiety. Specifically, the objectives of this study were to determine the safety, pharmacodynamic and pharmacokinetic activity of multiple doses of inhaled NO-donating budesonide derivatives compared to that of equimolar doses of inhaled budesonide in subjects with mild asthma who smoke. We chose patients with asthma who smoke since these patients had reported to have not only an increase in eNO but also an increase in neutrophils within their sputum (as described in COPD). While assessing the safety of these compounds in such patients we could thus explore the effects of the same in patients with increased sputum neutrophils.
as §1
The total number of adverse events reported by patients receiving budesonide and TPI-1020 is graphically depicted in FIG. 1. More specifically, FIG. 1 depicts the total number of either treatment-related or physician-determined adverse events for each drug during the 21 day therapeutic period.

[4] = system: blood eosinophils; assay: Blood eosinophils; assay type: in vivo, humans; conditions: mean (SD)
Procedure: as §1

[5] = Peak flow measurements (PEF, miniwright meter); assay type: in vivo, humans; conditions: mean (SD)
Procedure: (§3) Although this study was only powered for neutrophils, the following parameters were also evaluated: sputum total cell and differential cell counts, using known methods, on days 0, 15 and day 22; pre-dose FEV1 measurements on days 0, 1, 14, 15 and 22; peak flow measurements throughout the study (miniwright meter); use of daily rescue medication (salbutamol) throughout the study; the response to methacholine challenge test; and the eNO levels (chemiluminescence after reaction with ozone) on days 0, 15 and 22 and plasma CRP levels on days 0, 15 and 22.
as §1

[6] = system: sputum eosinophils; assay: Sputum differential cell count: eosinophils; assay type: in vivo, humans; conditions: mean (SD)
Procedure: as §3, §1

[7] = system: blood lymphocytes; assay: Blood lymphocytes; assay type: in vivo, humans; conditions: mean (SD)
Procedure: as §1

[8] = FEV1 spirometry; assay type: in vivo, humans; conditions: for FEV1 (ITT, L) / FEV1 (PD, L): mean (SD)
Procedure: as §3, §1

[9] = system: sputum neutrophils; assay: Sputum differential cell count: neutrophils; assay type: in vivo, humans; conditions: for median sputum neutrophils: all patients
From the text: as §2, §3, §1
The sample size was chosen to provide information about the primary study objective (safety) and with the power to detect a 20% difference in the decrease in sputum neutrophils with TPI-1020, versus that occurring with budesonide. There are no published studies in mild smokers with asthma that have described the variability in sputum neutrophils. However, based on the COPD publication by Gamble et al., almost all patients with COPD have increased sputum neutrophils (>20%). We calculated that if 13 subjects per group completed the study, a difference of 20% in neutrophils (%) between groups could be detected with a power of 80%.

[10] = system: C-reactive protein (CRP); assay: Plasma CRP levels; assay type: in vivo, humans; conditions: for CRP (mg/L): mean (SD)
Procedure: as §3, §1

[11] = Asthma control scoring system questionnaire (ACSS); assay type: in vivo, humans; conditions: mean (SD)
Procedure: as §1

[12] = system: HPA (hypothalamic-pituitary-adrenal) axis; conditions: in vivo; remark: listed apart in the source
From the text: as §4, §5

[13] = Methacholine challenge test (PC20); assay type: in vivo, humans; conditions: mean (SD)
Procedure: as §3, §1

[14] = system: neutrophils; assay: Guinea pig model of LPS induced lung inflammation; assay type: in vivo
[15] = system: exhaled nitric oxide (eNO); assay: Exhaled NO levels (chemiluminescence); assay type: in vivo, humans; conditions: for eNO (ppb): mean (SD)
Procedure: as §3, §1

[16] = Use of daily rescue medication (salbutamol); assay type: in vivo, humans; conditions: mean (SD)
Procedure: as §3, §1

[17] = Supine and standing blood pressure (vital signs), clinical study; assay type: in vivo, humans
Procedure: as §1

## CCCC1O[C@@H]2C[C@H]3[C@@H]4CCC5=CC(=O)C=C[C@]5(C)[C@H]4[C@@H](O)C[C@]3(C)[C@]2(C(=O)COC(=O)c2ccc(CO[N+](=O)[O-])cc2)O1 (some centres unmarked) [TPI-1020, budesonide 21-(4′-nitrooxymethyl)benzoate]
[1]; all time points over 8 hours on days 1 and 14, and day 22 about 12 hours after last dose
  TPI-1020 in plasma: not detected
[1]; inhaled, equimolar doses
  AUC of plasma budesonide relative to equimolar budesonide group: significantly lower AUC values
  Cmax of plasma budesonide relative to equimolar budesonide group: more than five fold lower
[1]; inhaled, equimolar doses, listed as NO-donating budesonide derivative
  AUC of plasma budesonide relative to equimolar budesonide group: more than five fold lower
[2]
  effect on 24-hour urinary free cortisol: statistically insignificant effects
[3]
  drug-related adverse events: 6
  number of subjects that reported adverse events: 6
  total treatment-emergent adverse events: 13
[4]; Baseline
  Blood eos (%): 2.8 (2.7) %
[4]; Day 22
  Blood eos (%): 1.8 (1.7) %
[5]; Baseline
  PEF (AM, L/min): 365.1 (93) L/min
[5]; Day 22
  PEF (AM, L/min): 375.3 (97) L/min
[6]; Baseline
  Sputum eos (%): 8.7 (10.8) %
[6]; Day 22
  Sputum eos (%): 3.3 (4.0) %
[7]; Baseline
  Blood lymphocytes (%): 20.3 (16.6) %
[7]; Day 22
  Blood lymphocytes (%): 18.4 (15.4)* %
[8]; Baseline
  FEV1 (ITT, L): 3.0 (0.5) L
  FEV1 (PD, L): 3.0 (0.6) L
[8]; Day 1
  FEV1 (PD, L): 2.8 (0.6) L
[8]; Day 14
  FEV1 (PD, L): 3.0 (0.6) L
[8]; Day 15
  FEV1 (PD, L): 2.8 (0.7) L
[8]; Day 22
  FEV1 (ITT, L): 3.0 (0.5) L
  FEV1 (PD, L): 3.0 (0.6) L
[8]; days 1 and 14, TPI-1020 600 mcg vs budesonide 400 mcg
  acute effects on FEV1 over an 8 hour period: no acute effects on FEV1 when compared to budesonide
[9]; after 22 days, post hoc, patients with baseline sputum neutrophils <20% (normal)
  mean sputum neutrophils: 17.9%
[9]; after 22 days, post hoc, patients with baseline sputum neutrophils >20%
  mean sputum neutrophils: 33.4%
[9]; baseline, post hoc, patients with baseline sputum neutrophils <20% (normal)
  mean sputum neutrophils: 11.5%
[9]; baseline, post hoc, patients with baseline sputum neutrophils >20%
  mean sputum neutrophils: 50.8%
[9]; day 0 prior to therapy
  median sputum neutrophils: 29.8%
[9]; day 0 to day 22, all patients
  decrease in median sputum neutrophils: 32.6%
[9]; day 22 (end of therapy)
  median sputum neutrophils: 20.1%
[9]; over 22 days, post hoc, patients with baseline sputum neutrophils >20%
  decrease in mean sputum neutrophils: 35.8%
[9]; patients with high neutrophils at baseline
  patients in whom sputum neutrophils decreased to <30%: 57.1%
[10]; 22 days of therapy compared to baseline
  patients in whom CRP decreased: 69.2%
[10]; Baseline
  CRP (mg/L): 3.6 (3.9) mg/L
[10]; Day 22
  CRP (mg/L): 3.0 (4.5) mg/L
[10]; day 15 versus baseline, p=0.03 between groups
  decrease in plasma CRP: 1.4 mg/L
[11]; Baseline
  ACSS: 65 (11.1)
[11]; Day 22
  ACSS: 71.5 (16.3)
[12]
  morning plasma cortisol level: 13.7 µg/dL
[13]; Baseline
  PC20 (mg/ml): 3.5 (5.7) mg/ml
[13]; Day 22
  PC20 (mg/ml): 4.0 (8.9) mg/ml
[14]
  recruitment of neutrophils into the lungs: inhibited the recruitment of neutrophils
[15]; Baseline
  eNO (ppb): 29 (27) ppb
[15]; Day 22
  eNO (ppb): 16.9 (14) ppb
[15]; equimolar doses, baseline to day 22
  decrease in eNO: 12.1 ppb
[16]; Baseline
  Doses of Rescue Rx: 14.7 (11)
  Rescue free days (%): 39 (39) %
[16]; Day 22
  Doses of Rescue Rx: 3.9 (4.5)
  Rescue free days (%): 63.5 (33) %
[17]; after 22 days, p=0.015 between groups
  change in standing pulse pressure: −9.33 mmHg
[17]; day 22 versus baseline
  decrease in standing diastolic blood pressure: 4.0%
  decrease in standing systolic blood pressure: 9.9%
  decrease in supine diastolic blood pressure: 3.4%
  decrease in supine systolic blood pressure: 3.2%
[17]; over the 22 day period, vs baseline
  effect on blood pressure values: decreased blood pressure values
